Patent publication US20070122870A1, “Method for water testing and devices and kit of components for use in such a method” (priority 2003, published 2007)
“Also recorded” adds a separate entry of the source.

What was measured:
Pseudomonas = experiment: ECOALERT deployment in controlled flow-through system, respiration (CTC fluorescence); type: cell-based; conditions: after 72 hours; 50 ppb BPH, 5 ppb TBDE; 7.5° C.
Text: The experimental setup involved 16 tanks (4 animal species 4 exposure treatments) connected in a flow-through system with a direct intake of seawater from 80 m depth in the Stavanger fjord, outside the laboratory. For each one of the test animals, three tanks were connected to a chemostate system which maintained a constant concentration of each of the following chemicals: 50 ppb bisphenol A (BPH), 50 ppb diallyl phthalate (DAP), and 5 ppb tetrabromodiphenylether or PBDE-47 (TBDE). The forth tank had no chemical supply and was used as control. ECOALERT was deployed in the mussel tanks, one basket per tank. The water conditions in all the tanks were: 7.5° C. temperature, pH 7.78 and […].
Each deploying basket of ECOALERT was equipped with 3 dialysis tubes with Pseudomonas, 3 tubes filled with Vibrio natriegens and 3 dialysis tubes with medium-only without cells. Each dialysis tube was repeatedly sampled at 1, 24, 48 and 72 hours. Due to the low temperature of the water (7.5° C.) a low bacterial growth rate was expected and because of that the duration of the experiment was expanded to 72 hours. At every time-point, growth and respiration activity of the bacteria were measured as turbidity and CTC fluorescence respectively using the handheld CTC fluorometer/turbidimeter. […]

caged Pseudomonas sp. [1] = experiment: Respiration indicator (CTC) in toxic caged cultures; type: cell-based; conditions: caged toxicity assays
Text: Respiration. Respiration was estimated with the redox dye CTC (Polysciences) as values of fluorescent intracellular formazan.
(§1) (x) Bacterial sub-cellular indicators (DNA, respiration, membrane integrity and viability) were studied in toxic cultures of caged Pseudomonas sp.

caged Pseudomonas sp. [2] = experiment: Growth limitation (OD) of caged bacteria in dialysis tubes; type: cell-based
Procedure: On the night before the experiment, a number of 2-litre HDPE bottles, one bottle per toxicity treatment, were filled with water (3/4 seawater 1-μm filtered, 1/4 distilled water). The bottles were kept at 15° C. stirring at low speed.
The dialysis tubes, which are supplied soaked in sodium azide, were rinsed throughly, refilled with distilled water and UV-irradiated for 10 minutes to ensure sterility.
Also the night before, a fresh culture of bacteria was inoculated from the original stock in liquid diluted medium.
Before starting the toxicity assay, the bottles were spiked with the contaminant and buffered to pH 7.3. At the same time, a fresh volume of diluted medium was inoculated from the culture grown overnight and kept for ˜2 hours at 15° C. until the growth rate picked up again and OD540 approached 0.005.
Then, the dialysis tubes were emptied of the water and four of them topped up with the bacterial culture, plus one blank tube with medium-only (no bacteria), and placed into the bottle to start the assay. Each bottle could hold 5 dialysis tubes floating upright.
The stirring was kept low and at time intervals samples were removed from the tubes with sterile pipettes to measure the different bacterial indicators.
(ix) The growth dynamics of toxic cultures of caged Pseudomonas sp. were studied. The effect of toxicity on the growth of caged bacteria was studied in several assays where different concentrations of contaminants were added to the water of the tanks.

V. natriegens [3] = experiment: Growth dynamics (optical density, cell concentration) in closed cultures; type: cell-based, Vibrio natriegens; conditions: closed culture; for bacterial growth (growth curve, growth rate, optical density, cell concentration): compared to the non-toxic control
Text: (ii) Sterile, 12-ml capacity, screw-capped, clear polystyrene test tubes (Starstedt) were selected as the most appropriate closed system for use in ECOALERT experiments. These test tubes are ideal for short-term cell culturing where aeration is not critical. Also, the optical density of the culture can be read as often as desired, by simply inserting the same tube in a spectrophotometer, thus avoiding contamination risks and reducing analysis time.
(viii) The effect of a range of contaminants on growth dynamics and sub-cellular bioindicators in closed cultures of V. natriegens was studied:
(xi) The sensitivity of cultures of V. natriegens to a range of contaminants in closed laboratory experimental systems was studied at specified toxic concentrations and time scales.

V. natriegens [4] = experiment: ProCheck cell viability assay, closed cultures; type: cell-based, Vibrio natriegens; conditions: closed culture, compared with the non-toxic control
Procedure: (§2) (viii) Two ready-to-use commercial kits to assess cell viability (ProCheck™ Cell Viability Assay) and membrane integrity (LIVE/DEAD® BacLight™ Bacterial Viability Kit) were tested and adapted for using during ECOALERT experiments.
(§3) ProCheck™ is designed to measure the amount of viable, metabolising cells in a sample, and LIVE/DEAD® BacLight™ distinguish live and dead bacteria As a preliminary test, the two kits were tested in a volumetric series of mixtures of two bacterial types of V. natriegens: live, exponentially growing bacteria and dead bacteria killed by autoclaving an aliquot of the same culture. The colorimetric signal indicating cell viability (ProCheck™) and the fluorimetric signal indicating membrane integrity (LIVE/DEAD® BacLight™) increased linearly with the proportion of live bacteria in the mixture.

V. natriegens [5] = experiment: LIVE/DEAD BacLight membrane integrity, closed cultures; type: cell-based, Vibrio natriegens; conditions: closed culture
Procedure: as §2, §3

V. natriegens [6] = experiment: DNA (thymidine uptake) and protein (leucine uptake) synthesis in closed cultures; type: cell-based, Vibrio natriegens; conditions: closed culture; for DNA synthesis / protein synthesis: compared to the control
Procedure: (iv) The application of the 3H-leucine method of Smith and Azam (Marine Microbial. Food Webs. 6(2), 107-114, 1992) was developed and also used with 3H-thymidine to estimate bacterial production. The synthesis of DNA (thymidine uptake) and protein (leucine uptake) was studied in V. natriegens closed cultures. In non-toxic cultures the uptake of both radiotracers by the bacteria reaches maximal values between 4 and 8 hours of the experiment, coinciding with the log-phase of the growth curve.
(§4) (viii) The effect of a range of contaminants on growth dynamics and sub-cellular bioindicators in closed cultures of V. natriegens was studied: […]

V. natriegens [7] = experiment: Respiration (CTC fluorescence) in closed cultures; type: cell-based, Vibrio natriegens; conditions: closed culture; for respiration: compared to the non-toxic control
Procedure: (vi) The application of the redox dye CTC (5-cyano-2,3-ditolyl tetrazolium chloride, Polysciences Europe) was developed to direct fluorimetric determination of respiration in bacterial suspensions. […] Traditionally, CTC has been used with flow cytometry and epifluorescence microscopy, combined with DAPI to counterstain total cells. However, its application to bacterioplankton remains controversial.
An exponentially growing culture of V. natrigens was incubated with the redox dye CTC following the standard procedure (2.0 mM final concentration, 4 h at 28° C.) and samples were taken every 30 minutes to count total cells and CTC+ cells in the microscope.
as §4

caged Pseudomonas sp. [8] = experiment: Bacterial DNA indicator (PicoGreen) in toxic caged cultures; type: cell-based; conditions: caged toxicity assays
Text: Bacterial DNA. To improve the detection of bacterial DNA in culture samples, the PicoGreen double-strand DNA (dsDNA) reagent (Molecular Probes) was used instead of DAPI. PicoGreen reagent is more sensitive to small changes in the DNA content of bacterial cultures, resulting in a good correlation with OD.
as §1

bacterial culture = experiment: ECOALERT assay, ratio respiration/growth (CTC/TRB); type: cell-based; conditions: compared to the control
Procedure: Two bacterial endpoints were chosen based on the results from Example 2: growth and respiration. Growth is an endpoint at population level and is estimated by measuring in vivo optical density (OD) or turbidity (TRB). Respiration is an endpoint at subcellular level and is measured by the fluorescence emitted by actively respiring bacteria, using the CTC redox dye.
To assess OD, TRB and CTC as indicators of toxicity a series of ECOALERT assays were carried out on a wide range of chemical substances, with special attention to common pharmaceuticals but also including some contaminants cited in the OSPAR list for priority action (OSPAR 2000). The concentrations tested were based on toxicological and environmental levels, where this information was available.
Even when no clear effect could be observed in the CTC indicator alone, there was an advantage in using the bacterial indicators OD (or TRB) and CTC simultaneously. That was because it was possible to use the ratio respiration/growth, which is an estimator of the proportion of respiring or active bacteria in the population, as an indirect indicator of the health of the population.

[9] = compared with the non-toxic control

Compound: CC(C)(c1ccc(O)cc1)c1ccc(O)cc1 [BPH, bisphenol A]
- bacterial respiration (Pseudomonas): clear negative effect; also recorded: had an impact on bacteria

Compound: [Cd] [Cd, cadmium]
- respiration as indicator of toxicity (caged Pseudomonas sp. [1]): most sensitive indicator of toxicity
- growth limitation (caged Pseudomonas sp. [2]; 20 mg Cd/L, after 4 hours of exposure): 59%
- growth limitation (caged Pseudomonas sp. [2]; lower Cd treatments): did not cause any clear limitation of bacterial growth

Compound: [Cu] [Cu, copper]
- bacterial growth (growth curve, growth rate, optical density, cell concentration) (V. natriegens [3]): notable slow down of the growth curve; also recorded: very conspicuous and instantaneous reduction
- bacterial growth (growth curve, growth rate, optical density, cell concentration) (V. natriegens [3]; listed as copper): nearly ceased
- cell viability (ProCheck) (V. natriegens [4]): affecting cell viability
- growth limitation (caged Pseudomonas sp. [2]; 20 mg/L, after 9 hours): 56%
- effect on growth (caged Pseudomonas sp. [2]; additions under 0.1 mg/L): enhancing effect on growth
- growth limitation (caged Pseudomonas sp. [2]; assays 1 (doses 0.001-10 mg Cu/L) and 2 (doses 0.02-20 mg Cu/L)): < 50%
- membrane integrity (LIVE/DEAD BacLight) (V. natriegens [5]; [9]): damage of membranes
- DNA synthesis (V. natriegens [6]): nearly ceased
- protein synthesis (V. natriegens [6]): nearly ceased
- respiration (V. natriegens [7]): very conspicuous and instantaneous reduction
- respiration (V. natriegens [7]; listed as copper): nearly ceased
- DNA as indicator of toxicity (caged Pseudomonas sp. [8]): could not detect limitation

Compound: Cl[C@H]1[C@H](Cl)[C@@H](Cl)[C@@H](Cl)[C@H](Cl)[C@H]1Cl [Lindane]
- bacterial growth (growth curve, growth rate, optical density, cell concentration) (V. natriegens [3]): transient, rather subtle stimulation; also recorded: transient, faint stimulation
- respiration (V. natriegens [7]): transient, rather subtle stimulation; also recorded: transient, faint stimulation

Compound: [Ni] [Ni, nickel]
- growth limitation (caged Pseudomonas sp. [2]; 5 mg/L, end of a 9-h assay): 51%
- growth limitation (caged Pseudomonas sp. [2]; 20 mg/L, after 9 hours): 69%
- effect on growth (caged Pseudomonas sp. [2]; below 0.5 mg/L): seemed to favour growth

Compound: Oc1c(Cl)c(Cl)c(Cl)c(Cl)c1Cl [PCP]
- CTC/TRB ratio (bacterial culture): loss of respiring cells

Compound: c1ccc2c(c1)ccc1ccccc12 [Phenanthrene, phenanthrene]
- bacterial growth (growth curve, growth rate, optical density, cell concentration) (V. natriegens [3]): did not affect bacterial growth significantly; also recorded: no major effect
- protein synthesis (V. natriegens [6]): doubled; also recorded: small initial stimulation
- DNA synthesis rates higher than control (V. natriegens [6]; on average): 30%
- respiration (V. natriegens [7]): No effect

Compound: c1cc2ccc3cccc4ccc(c1)c2c34 [Pyrene, pyrene]
- bacterial growth (growth curve, growth rate, optical density, cell concentration) (V. natriegens [3]): no other effect was observed
- membrane integrity (LIVE/DEAD BacLight) (V. natriegens [5]; stationary phase): loss of membrane integrity
- increase in respiration (V. natriegens [7]; average): 14%

Compound: CC(C)(c1cc(Br)c(O)c(Br)c1)c1cc(Br)c(O)c(Br)c1 [TBBA]
- membrane integrity (LIVE/DEAD BacLight) (V. natriegens [5]; stationary phase): membrane damage
- increase in cellular respiration (ratio respiration/optical density) (V. natriegens [7]; average): more than 90%
- respiration (V. natriegens [7]): sudden and important increase in respiration; also recorded: notable increase of respiration

Compound: Brc1cccc(Oc2ccc(Br)c(Br)c2Br)c1 [TBDE, tetrabromodiphenylether]
- bacterial respiration (Pseudomonas): possible positive effect

Compound: NC(=O)N1c2ccccc2C=Cc2ccccc21 [carbamazepine, reference compound]
- CTC/TRB ratio (bacterial culture): initial positive effect

Compound: [Pb] [lead]
- respiration as indicator of toxicity (caged Pseudomonas sp. [1]): most sensitive indicator of toxicity
- growth limitation (caged Pseudomonas sp. [2]; 2 mg/L, 4 hours): 52%

Compound: [Zn] [zinc]
- growth limitation (caged Pseudomonas sp. [2]; 50 mg/L, after 4 h): 51%
- toxicity / effect on growth (caged Pseudomonas sp. [2]; first experiment, doses between 0.05-5 mg/L): No significant toxicity; also recorded: positive effect in most of the treatments
- DNA as indicator of toxicity (caged Pseudomonas sp. [8]): sensitive indicator of toxicity

Compound: dodecylbenzensulfonic acid sodium salt [detergent]
- size of bacteria (V. natriegens [3]; compared to control bacteria, sodium salt): progressively reduced their size; also recorded: reduces
- bacterial growth (growth curve, growth rate, optical density, cell concentration) (V. natriegens [3]; sodium salt): increased over the control; also recorded: seems to enhance
- reduction in bacterial numbers (V. natriegens [3]; instant): 10 fold
- membrane integrity (LIVE/DEAD BacLight) (V. natriegens [5]; [9]): progressive damage of cellular membranes with time
- membrane integrity (LIVE/DEAD BacLight) (V. natriegens [5]; stationary phase): deleterious effect on membranes
- DNA synthesis (V. natriegens [6]): increased slightly over the control
- protein synthesis (V. natriegens [6]; sodium salt): inhibited but seems to recover after 48 h
- respiration (V. natriegens [7]; sodium salt): contrary to that of the non-toxic control; also recorded: seems to enhance
- reduction in respiration (V. natriegens [7]; instant): 10 fold

Compound: mercury [Hg]
- respiration as indicator of toxicity (caged Pseudomonas sp. [1]): most sensitive indicator of toxicity
- growth limitation (caged Pseudomonas sp. [2]; 2 mg/L, 4 hours): Up to 60%
